Data on 1 cell line can be found in the supplement of paper PMC10307832.

Holding throughout (experiment): relative viability (nuclei count vs DMSO), 5 days (fraction); higher = more cells survive
Compound in the assay “PAC-1 + Tozasertib”: C=CCc1cccc(/C=N/NC(=O)CN2CCN(Cc3ccccc3)CC2)c1O [PAC-1] + Cc1cc(Nc2cc(N3CCN(C)CC3)nc(Sc3ccc(NC(=O)C4CC4)cc3)n2)n[nH]1 [Tozasertib] (partner 0.1 µM)
A digest of the protocol:
(§1)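 Relative viability equals treated-well nuclei counts divided by vehicle-well nuclei counts. Counts came from 4× images of lung cancer cell lines grown in 1536-well plates for 5 days after pin-tool dosing on the day after seeding. Dosing used one drug alone or a fixed anchor-drug dose plus five library-drug doses (not always all listed) in √10 steps, and values are medians of duplicate plates.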

Compound in the assay “BMX-IN-1 + Olaparib”: C=CC(=O)Nc1cc(-n2c(=O)ccc3cnc4ccc(-c5ccc(NS(C)(=O)=O)cc5)cc4c32)ccc1C [BMX-IN-1] + O=C(c1cc(Cc2n[nH]c(=O)c3ccccc23)ccc1F)N1CCN(C(=O)C2CC2)CC1 [Olaparib] (partner 8 µM)
The procedure, abridged: as §1

Compound in the assay “PAC-1 + Dasatinib”: C=CCc1cccc(/C=N/NC(=O)CN2CCN(Cc3ccccc3)CC2)c1O [PAC-1] + Cc1nc(Nc2ncc(C(=O)Nc3c(C)cccc3Cl)s2)cc(N2CCN(CCO)CC2)n1 [Dasatinib] (partner 0.075 µM)
The procedure, abridged:
as §1

Compound in the assay “BMX-IN-1 + Navitoclax”: C=CC(=O)Nc1cc(-n2c(=O)ccc3cnc4ccc(-c5ccc(NS(C)(=O)=O)cc5)cc4c32)ccc1C [BMX-IN-1] + CC1(C)CCC(c2ccc(Cl)cc2)=C(CN2CCN(c3ccc(C(=O)NS(=O)(=O)c4ccc(N[C@H](CCN5CCOCC5)CSc5ccccc5)c(S(=O)(=O)C(F)(F)F)c4)cc3)CC2)C1 [Navitoclax] (partner 0.5 µM)
A digest of the protocol: as §1

Compound in the assay “Ibrutinib + Crizotinib”: C=CC(=O)N1CCC[C@@H](n2nc(-c3ccc(Oc4ccccc4)cc3)c3c(N)ncnc32)C1 [Ibrutinib] + C[C@@H](Oc1cc(-c2cnn(C3CCNCC3)c2)cnc1N)c1c(Cl)ccc(F)c1Cl [Crizotinib] (partner 1 µM)
The procedure, abridged: as §1

Consider SK-MES-1, for which the relative viability in the assay with PAC-1 + Tozasertib (first compound 0.02 µM) turned out to be 0.9; with PAC-1 + Tozasertib (first compound 0.06325 µM), 0.916; with PAC-1 + Tozasertib (first compound 0.2 µM), 0.892; in the assay with PAC-1 + Tozasertib (first compound 2 µM) it was 0.916; with BMX-IN-1 + Olaparib (first compound 0.02 µM) it was 0.754; with BMX-IN-1 + Olaparib (first compound 0.2 µM), 0.811. Also, the relative viability is 0.961 with BMX-IN-1 + Olaparib (first compound 0.6325 µM); 0.625 with BMX-IN-1 + Olaparib (first compound 2 µM); 0.359 in the assay with PAC-1 + Dasatinib (first compound 0.02 µM); 0.516 in the assay with PAC-1 + Dasatinib (first compound 0.06325 µM); 0.371 with PAC-1 + Dasatinib (first compound 0.2 µM); 0.401 in the assay with PAC-1 + Dasatinib (first compound 2 µM). Also, the relative viability was 1.45 with BMX-IN-1 + Navitoclax (first compound 0.02 µM); 1.45 in the assay with BMX-IN-1 + Navitoclax (first compound 0.2 µM); 1.23 in the assay with BMX-IN-1 + Navitoclax (first compound 0.6325 µM); 1.1 with BMX-IN-1 + Navitoclax (first compound 2 µM); 0.984 with Ibrutinib + Crizotinib (first compound 0.005 µM); 0.907 in the assay with Ibrutinib + Crizotinib (first compound 0.01581 µM). Further, the relative viability in the assay with Ibrutinib + Crizotinib (first compound 0.05 µM) is 1.02; with Ibrutinib + Crizotinib (first compound 0.5 µM), 0.555.
